According to ChEMBL document CHEMBL3792297, “Studies on phenothiazines: New microtubule-interacting compounds with phenothiazine A-ring as potent antineoplastic agents” (Bioorg Med Chem, 2016):

Columns and labels:
A498 = assay: Growth inhibition of human A498 cells after 48 hrs by SRB assay; type: functional; settings: A498, 48 h
SK-MEL-2 = assay: Growth inhibition of human SK-MEL-2 cells after 48 hrs by SRB assay; type: functional; settings: SK-MEL-2, 48 h
[1] = Growth inhibition of human HCT116 cells after 48 hrs by SRB assay; type: functional; settings: HCT-116, 48 h
[2] = Growth inhibition of human SNB75 cells after 48 hrs by SRB assay; type: functional; settings: SNB-75, 48 h
Malme-3M = assay: Growth inhibition of human MALME-3M cells after 48 hrs by SRB assay; type: functional
[3] = Growth inhibition of human Caki1 cells after 48 hrs by SRB assay; type: functional; settings: CAKI-1, 48 h
NCI-H460 = assay: Growth inhibition of human NCI-H460 cells after 48 hrs by SRB assay; type: functional; settings: NCI-H460, 48 h
SK-MEL-28 = assay: Growth inhibition of human SK-MEL-28 cells after 48 hrs by SRB assay; type: functional; settings: SK-MEL-28, 48 h
[4] = Growth inhibition of human NCI-ADR-RES cells after 48 hrs by SRB assay; type: functional
M14 = assay: Growth inhibition of human M14 cells after 48 hrs by SRB assay; type: functional; settings: M14, 48 h
[5] = Growth inhibition of human PC3 cells after 48 hrs by SRB assay; type: functional; settings: PC-3, 48 h
K562 = assay: Growth inhibition of human K562 cells after 48 hrs by SRB assay; type: functional; settings: K562, 48 h
MCF7 = assay: Growth inhibition of human MCF7 cells after 48 hrs by SRB assay; type: functional; settings: MCF7, 48 h
SK-MEL-5 = assay: Growth inhibition of human SK-MEL-5 cells after 48 hrs by SRB assay; type: functional; settings: SK-MEL-5, 48 h
[6] = Inhibition of sheep brain tubulin polymerization by DAPI staining-based fluorimetric method; set-up: species or system Ovis aries
[7] = Growth inhibition of human BT549 cells after 48 hrs by SRB assay; type: functional; settings: BT-549, 48 h
[8] = Growth inhibition of human COLO205 cells after 48 hrs by SRB assay; type: functional; settings: COLO 205, 48 h
ACHN = assay: Growth inhibition of human ACHN cells after 48 hrs by SRB assay; type: functional
[9] = Growth inhibition of human OVCAR5 cells after 48 hrs by SRB assay; type: functional; settings: OVCAR-5, 48 h
[10] = Growth inhibition of human Hs 578T cells after 48 hrs by SRB assay; type: functional
786-0 = assay: Growth inhibition of human 786-0 cells after 48 hrs by SRB assay; type: functional; settings: 786-0, 48 h
MDA-MB-468 = assay: Growth inhibition of human MDA-MB-468 cells after 48 hrs by SRB assay; type: functional; settings: MDA-MB-468, 48 h
NCI-H23 = assay: Growth inhibition of human NCI-H23 cells after 48 hrs by SRB assay; type: functional; settings: NCI-H23, 48 h
KM12 = assay: Growth inhibition of human KM12 cells after 48 hrs by SRB assay; type: functional; settings: KM12, 48 h
SN12C = assay: Growth inhibition of human SN12C cells after 48 hrs by SRB assay; type: functional
[11] = Growth inhibition of human DU145 cells after 48 hrs by SRB assay; type: functional; settings: DU-145, 48 h
U-251 = assay: Growth inhibition of human U251 cells after 48 hrs by SRB assay; type: functional; settings: U-251, 48 h

SMILES	GI50 (A498) [nM]	GI50 (SK-MEL-2) [nM]	GI50 [1] [nM]	GI50 [2] [nM]	GI50 (Malme-3M) [nM]	GI50 [3] [nM]	GI50 (NCI-H460) [nM]	GI50 (SK-MEL-28) [nM]	GI50 [4] [nM]	GI50 (M14) [nM]	GI50 (K562) [nM]	GI50 (MCF7) [nM]	GI50 (SK-MEL-5) [nM]	GI50 [7] [nM]	GI50 [8] [nM]	GI50 (ACHN) [nM]	GI50 [9] [nM]	GI50 [10] [nM]	GI50 (MDA-MB-468) [nM]	GI50 (NCI-H23) [nM]	further results
O=C(c1ccc2c(c1)Sc1ccccc1N2)c1c[nH]c2ccccc12	172	309	378	249	532	359	347	630	317	319	310	312	452	366	285	671	565	239	301	389	GI50 [5]: 544 nM; IC50 [6]: 38900 nM; GI50 (786-0): 672 nM; GI50 (KM12): 311 nM; GI50 (SN12C): 708 nM; GI50 [11]: 679 nM; GI50 (U-251): 413 nM
COc1ccc(C(=O)N2c3ccccc3Sc3ccccc32)c(C(F)(F)F)c1	282	677	505	264	25800	692	383	9170	370	343	349	411	692	892	319	1330	1610	472	364	578	GI50 [5]: 426 nM; IC50 [6]: 11900 nM; GI50 (KM12): 413 nM; GI50 (SN12C): 1300 nM; GI50 [11]: 433 nM; GI50 (U-251): 500 nM
COc1ccc(C(=O)N2c3ccccc3Sc3ccccc32)c(OC)c1	307	585	452	209	416	574	406	942	400	359	381	450	408	659	333	726	10000	482	327	776	GI50 [5]: 430 nM; GI50 (786-0): 480 nM; GI50 (KM12): 438 nM; GI50 (SN12C): 586 nM; GI50 [11]: 491 nM; GI50 (U-251): 615 nM
COc1ccc(C(=O)N2c3ccccc3Sc3ccccc32)c(F)c1	330	531	393	288	16200	584	485	1640	517	371	442	405	759	676	445	831	3660	377	413	3420	GI50 [5]: 407 nM; IC50 [6]: 22500 nM; GI50 (786-0): 675 nM; GI50 (KM12): 489 nM; GI50 (SN12C): 1940 nM; GI50 [11]: 1400 nM; GI50 (U-251): 615 nM
COc1ccc(C(=O)N2c3ccccc3Sc3ccccc32)cc1F	219	352	358	270	365	465	340	320	200	232	110	346	443	439	236	1050	418	193	231	340	IC50 [6]: 11800 nM; GI50 (786-0): 609 nM; GI50 (KM12): 203 nM; GI50 (SN12C): 525 nM; GI50 [11]: 3610 nM; GI50 (U-251): 353 nM
